# Results reported in patent US20220281835A1, “PHENOL DERIVATIVES FOR USE AS ANTIMICROBIAL, ANTIBACTERIAL, BACTERICIDE” (SPECIAL PRODUCT'S LINE S.P.A., priority 2019, published 2022).
# Key:
# Assay in all cases: MIC/MBC broth-dilution (micromethod), CLSI
# Format in all cases: cell-based
# E. coli of Collection = details: Escherichia coli
# From the text: (§1) Determination of Minimal Inhibitory Concentration (MIC), Minimal Bactericidal Concentration (MBC), bactericidal curves and killing rate on Gram positive and Gram negative bacteria strains, for the evaluation of the bactericidal activity of compounds of example 1 (n. 1 to 14).
# (§2) Sensitivity tests have been performed in broth-dilution (micromethod) with the purpose to test the possible bacteriostatic and/or bactericidal power in different compounds, in accordance with CLSI guidelines (Clinical and Laboratory Standards Institute). In details, phenotypic methods based on in vitro MIC and MBC determination have been performed on previously isolated bacterial strains, identified and characterized at the level of their antibiotic susceptibility profile. According to MIC and MBC data, the Killing Rate was calculated as the ratio between MBC and MIC on which basis it is possible to define the compounds tested as bactericides (killing rate=1-4), or bacteriostatic (killing rate >4).
# (§3) Preparation of the solution containing molecules: for each molecule to be tested, solutions were made as DMSO Stock, with a concentration of 2.560 mg/ml, used to test 12 dilutions with the following scalar drug concentrations: 512-256-128-64-32-16-8-4-2-1-0.5-0.25 μg/ml. The scalar dilutions were prepared directly on plates by using Mueller Hinton Broth (MHB) as a solvent.
# (§4) Bacterial suspension preparation: cryostrains preserved at −80° C. were recovered by incubation in growth medium (Brain Heart Infusion Broth, BHI) for 24-48 hours at 37° C. followed by passages in agar growth medium (Columbia Blood Agar). Colonies with less than 30 hours are suspended in MHB with the purpose to prepare a bacterial suspension with a turbidity of 0.5 MF, containing approximately 1.5×10^8 cfu/ml. This injection is additionally diluted in MHB until reaching a final concentration of 5×10^5 cfu/ml (range 3-7×10^5 cfu/ml). Identical volumes of this bacterial suspension are added on a plate, for each well containing drug scalar dilutions, to obtain a final concentration between 512 a 0.25 μg/ml. The set up of bacterial suspensions as well as the passage on slate has always been performed within 30 minutes, in order not to alter the concentration of the bacterial suspension. Simultaneously, check in broth-microdilution only with solvent (in order to exclude that the effect of growth inhibition might be due to the drug solution solvent), positive growth control in absence of DMSO and drug, and negative purity control only with injection broth are performed. As a consequence the slate is incubated at 37° C. for 24 and 48 hours in aerobes. The 24 hours MIC is considered as the minimum drug concentration able to inhibit bacterial growth, which makes it possible to observe the absence of bacterial growth and the absence of turbidity. The same observations are valid to evaluate 48 hours MIC. After the incubation, an equal volume of bacterial suspension from each well is plated on agar growth medium and incubated for 24-48 hours at a temperature of 37° C. in aerobes, in order to define the MBC after the incubation. The MBC is evaluated as the minimum concentration of drug able to kill the 99,9% of the initial bacterial population.
# (§5) Bacterial strains: the bactericidal and/or bacteriostatic power of the synthesized compounds can be determined by using standard reference strains such as: • 1. S. Aureus ATCC 25923 res kan, tob, res streptogramine (sga-sgb, efflux), res mupirocina (at low level), res trimetoprim; • 2. S. Aureus strain 1 (collection) mec a+, res kan tob gen, res quinolones, lincosamides, res streptogramine (sga-sgb), mlsb+sa constituent, mlsb constituent, res mupirocine (low level), res trimetoprim; • 3. S. Aureus strain 2 (collection) acquired penicillinase, res kan tob, res streptogramine (sga-sgb, efflux), res mupirocine (low level), res trimetoprim; • 4. Enterococcus faecalis ATCC 51299 (str+gen res at high level, mlsb res, simil van b res); • 5. […]
# [1] = tested on: Enterococcus faecalis strain 2 (collection); details: for MBC: E. FAECALIS strain 2, kills 99,9% of initial population
# From the text: as §1, §2, §3, §4, §5
# S. Aureus ATCC 25923 = details: Staphylococcus aureus; for MBC: ATCC25923, kills 99,9% of initial population
# From the text: as §1, §2, §3, §4, §5
# [2] = tested on: Enterococcus faecalis strain 1 (collection); details: for MBC: E. FAECALIS strain 1, kills 99,9% of initial population
# From the text: as §1, §2, §3, §4, §5
# [3] = tested on: P. Aeruginosa of collection; details: Pseudomonas aeruginosa
# From the text: as §1, §2, §3, §4, §5
# [4] = tested on: A. baumannii of collection; details: Acinetobacter baumannii; for MBC: kills 99,9% of initial population
# From the text: as §1, §2, §3, §4, §5
# [5] = tested on: Enterococcus faecalis ATCC 51299; details: for MBC: ATCC51299, E. FAECALIS ATCC 51299, kills 99,9% of initial population; for MIC: ATCC51299, E. FAECALIS ATCC 51299, values without asterisk
# From the text: as §1, §2, §3, §4, §5
# [6] = tested on: S. Aureus strain 2 (collection); details: Staphylococcus aureus; for MBC: kills 99,9% of initial population; for MIC: values without asterisk
# From the text: as §1, §2, §3, §4, §5
# [7] = tested on: S. Aureus strain 1 (collection) mec a+; details: Staphylococcus aureus; for MBC: kills 99,9% of initial population; for MIC: marked *: MIC value read at 48 hours
# From the text: as §1
# In details, phenotypic methods based on in vitro MIC and MBC determination have been performed on previously isolated bacterial strains, identified and characterized at the level of their antibiotic susceptibility profile. According to MIC and MBC data, the Killing Rate was calculated as the ratio between MBC and MIC on which basis it is possible to define the compounds tested as bactericides (killing rate=1-4), or bacteriostatic (killing rate >4).
# as §3
# as §4, with “The 24 hours MIC is considered as the minimum drug concentration able to inhibit bacterial growth, which makes it possible to observe the absence of bacterial growth and the absence of turbidity.” left out, “incubation.” for “incubation. The MBC is evaluated as the minimum concentration of drug able to kill the 99,9% of the initial bacterial population.”
# Bacterial strains: the bactericidal and/or bacteriostatic power of the synthesized compounds can be determined by using standard reference strains such as: • 1. S. Aureus ATCC 25923 res kan, tob, res streptogramine (sga-sgb, efflux), res mupirocina (at low level), res trimetoprim; • 2. S. Aureus strain 1 (collection) mec a+, res kan tob gen, res quinolones, lincosamides, res streptogramine (sga-sgb), mlsb+sa constituent, mlsb constituent, res mupirocine (low level), res trimetoprim; • 3. S. Aureus strain 2 (collection) acquired penicillinase, res kan tob, res streptogramine (sga-sgb, efflux), res mupirocine (low level), res trimetoprim; • 4. Enterococcus faecalis ATCC 51299 (str+gen res at high level, mlsb res, simil van b res); • 5. Enterococcus faecalis strain 1 (collection) (str+kan res at high level str res at high level tetracycline res); • 6. Enterococcus faecalis strain 2 (collection) (kan res at high level); • 7. E. coli of Collection: RESISTANT to ampicilline, amox+ac clav, ampicillinr+sulbactam, cefalexine, cefuroxime, cefuroxime axetil, cefixime, cefpodoxime, cefotaxime, ceftazidime, ceftriaxone, netilmicine, tobramicine, ciprofloxcine, trim/sulfametox, esbl pos, SENSITIVE to meropenem and gentamicine, INTERMEDIATE to amikacine; • 8. 8.
# [8] = E. FAECALIS strain 2, marked *: MIC value read at 48 hours
# [9] = ATCC25923, values without asterisk
# [10] = E. FAECALIS strain 1, marked *: MIC value read at 48 hours
MIC (E. coli of Collection),"MIC [1, 8]","MIC [2, 10]",MIC [3],MIC [4],MIC [5],MIC [6],MIC [7],"MIC (S. Aureus ATCC 25923; ATCC25923, marked *: MIC value read at 48 hours)",Compound,MBC [1],MBC (S. Aureus ATCC 25923),MIC (S. Aureus ATCC 25923; [9]),MBC [2],MBC [4],MBC [5],MBC [6],MBC [7],"MIC ([1]; E. FAECALIS strain 2, values without asterisk)","MIC ([2]; E. FAECALIS strain 1, values without asterisk)"
512 µg/mL,4 to 8 µg/mL,4 to 8 µg/mL,256 µg/mL,128 µg/mL,8 µg/mL,4 µg/mL,2 to 4 µg/mL,–,"CON=Cc1cc(/C=C/C(=O)O)ccc1-c1ccc(O)c(C23CC4CC(CC(C4)C2)C3)c1 [Compound 13, 3-[3′-Adamantan-1-yl-4′-hydroxy-2-methoxyimino-methyl-biphenyl-4-yl]-acrylic acid]",16 µg/mL,4 µg/mL,2 µg/mL,16 µg/mL,512 µg/mL,32 µg/mL,32 µg/mL,4 µg/mL,–,–
256 µg/mL,0.5 to 1 µg/mL,2 to 4 µg/mL,256 µg/mL,128 µg/mL,2 µg/mL,4 µg/mL,4 to 8 µg/mL,4 to 8 µg/mL,"O=C(O)/C=C/c1ccc(-c2ccc(O)c(C34CC5CC(CC(C5)C3)C4)c2)cc1 [adarotene, reference compound]",16 µg/mL,16 µg/mL,–,32 µg/mL,512 µg/mL,32 µg/mL,8 µg/mL,16 µg/mL,–,–

Compound,MIC (E. coli of Collection),"MIC [1, 8]","MIC [2, 10]",MIC [3],MIC [4],MIC [5],MIC [6],MIC [7],"MIC (S. Aureus ATCC 25923; ATCC25923, marked *: MIC value read at 48 hours)",MBC [1],MBC (S. Aureus ATCC 25923),MIC (S. Aureus ATCC 25923; [9]),MBC [2],MBC [4],MBC [5],MBC [6],MBC [7],"MIC ([1]; E. FAECALIS strain 2, values without asterisk)","MIC ([2]; E. FAECALIS strain 1, values without asterisk)"
"CC(C)(C)ON=Cc1cc(C=CC(=O)O)ccc1-c1ccc(O)c(C23CC4CC(CC(C4)C2)C3)c1 [Compound 12, 3-[3′-Adamantan-1-yl-4′hydroxy-2-tert-butoxyiminomethyl-biphenyl-4-yl]-acrylic acid]",256 µg/mL,–,–,256 µg/mL,128 µg/mL,2 µg/mL,2 µg/mL,2 to 4 µg/mL,–,4 µg/mL,4 µg/mL,2 µg/mL,8 µg/mL,–,8 µg/mL,2 µg/mL,4 µg/mL,2 µg/mL,2 µg/mL
